≈ marks a conversion by molar mass, not a printed value. Read-outs that look alike come from different tables or passages of the source.

Data on two compounds can be found in publication PMC8128204, “Development of 3-methyl/3-(morpholinomethyl)benzofuran derivatives as novel antitumor agents towards non-small cell lung cancer cells” (Journal of Enzyme Inhibition and Medicinal Chemistry, 2021).

The test system of data set [1] is A549 cells. Kind of data set: MTT anti-proliferative assay, A549. The conditions noted are these: mean ± SD of three experiments. The class given is cell-based, human. The procedure: (§1) The antiproliferative activity of the synthesised derivatives of the 3-methylbenzofuran series (4a–d, 6a–c, 8a–c and 11) and the 3-(morpholinomethyl)benzofuran series (15a–c, 16a–b, 17a–b and 18) was evaluated against non-small cell lung carcinoma (NSCLC) A549 and NCI-H23 cell lines, following the procedures of the MTT assay. […] 1. Anti-proliferative action toward human […] cell lines […]
(§2) The two examined human non-small cell lung carcinoma cell lines (A549 and NCI-H23) have been obtained from American Type Culture Collection (ATCC). The cells were maintained in Dulbecco's modified Eagle's medium (DMEM) supplemented with 10% heat inactivated fetal calf serum (GIBCO), penicillin (100 U/ml) and streptomycin (100 µg/ml) at 37 °C in humidified atmosphere containing 5% CO2. […]
(§3) flask in 5 ml of culture medium. The anti-proliferative activity of the tested 3-methylbenzofurans (4a-d, 6a-c, 8a-c and 11) and 3-(morpholinomethyl)benzofurans (15a-c, 16a-b, 17a-b and 18) measured in vitro using the MTT assay. Briefly, cells were plated out in 96-well microtiter plate (0.5X10^4 cells/well) and incubated for 24 h before treatment with the tested benzofurans to allow cells to attach to the bottom of the well of the plate. Tested benzofuranswere were dissolved in DMSO at 1 mg/ml immediately before use and diluted to the appropriate volume just before addition to the cell culture. […]
(§4) added to the cells (three wells were prepared for each individual dose). Cells were incubated with […]
(§5) At the end of exposure, MTT […]
(§6) solution in PBS (5 mg/ml) was then added to all well including no cell blank and left to incubate for 90 min. The formation of formazan crystals were visually confirmed using phase contract microscopy. DMSO (100 µl/well) was added to dissolve the formazan crystals with shaking for 10 min after which the absorbance was read at 590 nm against no cell blanks on a microplate reader.
(§7) The relation between percent of surviving fraction and log drug concentration is plotted to get the survival curve for each cell line.
A general note: Formazan colour is commonly taken as a measure of viable cells.

The test system of data set [2] is NCI-H23 cells. As to the kind of experiment: MTT anti-proliferative assay, NCI-H23. The conditions noted are these: mean ± SD of three experiments. The class given is cell-based, human. The protocol:
as §1, §2, §3, §4, §5, §6, §7

For data set [3], the system named is WI-38 cell line. As to the kind of experiment: Cytotoxic activity against non-tumorigenic WI-38 cell line. The conditions noted are these: for Mean tumour selectivity: S.I. WI-38/A549 and NCI-H23; for IC50: non-tumorigenic human lung WI-38 cell line. The data set is classed as cell-based, human. From the text:
Antiproliferative agents are designed to inhibit the cellular growth of tumour cells selectively, while sparing the normal cells.

For data set [4], the system named is A549 cells. Kind of data set: Cell cycle analysis (PI flow cytometry), A549. The data set is classed as cell-based, human. To be noted: A549, 24 h at IC50 concentration. The procedure: (§8) Lung cancer A549 cells were treated with benzofuran 4b, whereas NCI-H23 cells were treated […]
(§9) twice with ice-cold phosphate buffered saline (PBS). Subsequently, the treated cells were collected by centrifugation, fixed in ice-cold 70% (v/v) ethanol, washed with PBS, re-suspended with 100 μg/mL RNase, stained with 40 μg/mL PI, and analyzed by flow cytometry using FACS Calibur (Becton Dickinson, BD, Franklin Lakes, NJ, USA). The cell cycle distributions were calculated using CellQuest software 5.1 (Becton Dickinson). […]

The subject of data set [5] is A549 cells. Kind of data set: Annexin V-FITC/PI apoptosis assay, A549. The data set is classed as cell-based, human. The conditions noted are these: A549, at IC50 concentration; control 1.37%. The protocol:
(§10) The apoptotic effect of the three benzofurans (4b, 15a and 16a) was evaluated using Annexin VFITC/PI (AV/PI) dual staining assay to validate if their observed cytotoxic effect is due to non-specific necrosis or physiological apoptosis. […] Moreover, the apoptotic effects of 3-(morpholinomethyl)benzofuran derivatives 15a and 16a were evaluated in NCI-H23 cancer cell line.
as §8
(§11) twice with ice-cold phosphate buffered saline (PBS). Subsequently, the treated cells were collected by centrifugation, fixed in ice-cold 70% (v/v) ethanol, washed with PBS, re-suspended with 100 μg/mL RNase, stained with 40 μg/mL PI, and analyzed by flow cytometry using FACS Calibur (Becton Dickinson, BD, Franklin Lakes, NJ, USA). The cell cycle distributions were calculated using CellQuest software 5.1 (Becton Dickinson).
(§12) 3. Annexin V-FITC Apoptosis Assay […]
(§13) Cells were then rinsed in binding buffer and resuspended in 150 μL of binding buffer with the addition of 1 μL of DAPI (1 μg/μL in PBS). Cells were then analyzed using the flow cytometer BD FACS Canto II and the results were interpreted with FlowJo7.6.4 software (Tree Star, Ashland, 4. VEGFR-2 Kinase Inhibitory Activity […]

Data set [6] deals with M. tuberculosis ATCC 27294. Kind of data set: Microplate Alamar Blue Assay, anti-tubercular activity. The class given is cell-based. To be noted: MABA, 7 days.
Data set [7] concerns the target VEGFR-2 (Homo sapiens, UniProt P35968). As to the kind of experiment: VEGFR-2 kinase inhibitory assay (VEGFR2(KDR) Kinase Assay Kit).
Description: CA, USA), according to the manufacturer’s instructions.
Data set [8] relates to NCI-H23 cells. Kind of data set: Cell cycle analysis (PI flow cytometry), NCI-H23. The class given is cell-based, human. The conditions noted are these: NCI-H23, 24 h at IC50 concentration. The protocol:
as §8, §9
(In general: A flow cytometer gives signals particle by particle.)

For data set [9], the system named is NCI-H23 cells. Kind of data set: Annexin V-FITC/PI apoptosis assay, NCI-H23. The class given is cell-based, human. The conditions noted are these: NCI-H23, at IC50 concentration; control 2.09%. The protocol:
as §10, §8, §11, §12, §13

The mark [10] stands for this setting: Mycobacterium tuberculosis, ATCC27294, 168 h, read-out: MIC.

VEGFR-2, sequence (P35968 20-1356): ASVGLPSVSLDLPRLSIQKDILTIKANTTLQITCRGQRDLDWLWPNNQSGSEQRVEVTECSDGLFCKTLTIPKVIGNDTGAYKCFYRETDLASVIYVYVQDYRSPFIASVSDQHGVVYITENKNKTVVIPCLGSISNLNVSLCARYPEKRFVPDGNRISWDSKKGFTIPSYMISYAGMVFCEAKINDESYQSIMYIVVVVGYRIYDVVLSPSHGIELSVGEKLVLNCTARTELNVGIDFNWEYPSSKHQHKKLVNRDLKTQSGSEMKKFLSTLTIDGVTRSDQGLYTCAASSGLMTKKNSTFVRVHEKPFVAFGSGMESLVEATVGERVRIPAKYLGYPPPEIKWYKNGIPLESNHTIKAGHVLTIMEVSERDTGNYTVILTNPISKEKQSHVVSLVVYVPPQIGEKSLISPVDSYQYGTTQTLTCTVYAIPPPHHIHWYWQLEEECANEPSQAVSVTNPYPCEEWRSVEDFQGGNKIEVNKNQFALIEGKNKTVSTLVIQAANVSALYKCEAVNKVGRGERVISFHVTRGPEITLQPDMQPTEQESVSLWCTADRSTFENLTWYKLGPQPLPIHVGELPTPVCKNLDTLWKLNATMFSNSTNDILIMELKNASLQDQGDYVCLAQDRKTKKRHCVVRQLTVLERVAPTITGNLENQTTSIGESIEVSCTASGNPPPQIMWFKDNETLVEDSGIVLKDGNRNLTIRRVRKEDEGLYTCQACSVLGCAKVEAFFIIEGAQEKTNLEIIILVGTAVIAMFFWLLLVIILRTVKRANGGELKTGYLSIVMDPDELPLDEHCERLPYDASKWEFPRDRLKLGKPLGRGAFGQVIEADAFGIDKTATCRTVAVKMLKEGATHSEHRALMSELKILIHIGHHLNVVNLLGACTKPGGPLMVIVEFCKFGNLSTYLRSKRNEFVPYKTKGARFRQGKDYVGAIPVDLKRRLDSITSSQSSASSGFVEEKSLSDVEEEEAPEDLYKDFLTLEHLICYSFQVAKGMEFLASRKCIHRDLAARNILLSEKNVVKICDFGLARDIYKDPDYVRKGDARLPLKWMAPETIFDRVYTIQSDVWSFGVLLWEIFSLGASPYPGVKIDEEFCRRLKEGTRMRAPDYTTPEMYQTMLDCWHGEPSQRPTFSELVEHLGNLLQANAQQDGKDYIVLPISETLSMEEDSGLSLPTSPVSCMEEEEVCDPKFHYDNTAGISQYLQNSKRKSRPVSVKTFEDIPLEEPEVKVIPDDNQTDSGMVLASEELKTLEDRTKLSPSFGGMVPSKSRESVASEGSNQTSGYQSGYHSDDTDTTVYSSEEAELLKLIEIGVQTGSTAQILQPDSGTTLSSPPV

In turn, `COc1ccc(NC(=S)NNC(=O)c2oc3ccccc3c2C)cc1` [Compound 4b, N-(4-Methoxyphenyl)-2-(3-methylbenzofuran-2-carbonyl)hydrazine-1-carbothioamide] yielded a melting point of 190 to 193 °C. Moreover, the IC50 in data set [1] (Homo sapiens, A549, 48 h) was 1.48 ± 0.08 µM. For the same compound, in data set [2] (Homo sapiens, NCI-H23, 48 h), the IC50 is 5.9 ± 0.29 µM. Besides, in data set [3], the Mean tumour selectivity came to 5.3 and the IC50 stood at 19.5 ± 1.18 µM. For the same compound, in data set [4] (attenuated), the “S phase, fold vs control” value turned out to be 0.46 fold. Moreover, in [4] (augmentation), the “G2/M phase cell population, fold vs control” value is 2.67 fold and the “sub-G1 phase cell population, fold vs control” value came out at 21.76 fold. For the same compound, the “G0–G1 phase, fold vs control” value in data set [4] (reduced) came to 0.67 fold. The “apoptosis (total)” value in data set [5] amounted to 42.05%. Moreover, the MIC in data set [6] amounted to 500 µg/mL (≈ 1410 µM). Moreover, the MIC in data set [6] (setting [10]) stood at 250 µg/mL (≈ 703 µM). In [7], this compound yielded an IC50 of 0.078 ± 0.0046 µM.
With `COc1cccc(NC(=S)NNC(=O)c2oc3ccccc3c2CN2CCOCC2)c1` [Compound 15a, N-(3-Methoxyphenyl)-2-(3-(morpholinomethyl)benzofuran-2-carbonyl)hydrazine-1-carbothioamide], the melting point fell in the range of 190 to 192 °C. Also, in data set [1] (48 h), the IC50 is 5.27 ± 0.29 µM. Also, it took 5.27 ± 0.29 µM to reach half-maximal inhibition in data set [1] (Homo sapiens, A549, 48 h) (IC50). In data set [2] (48 h), this compound returned an IC50 of 2.52 ± 0.13 µM. Further, the IC50 in [2] (Homo sapiens, NCI-H23, 48 h) amounted to 2.52 ± 0.13 µM. Besides, in data set [3], the Mean tumour selectivity is reported as 8.4 and the IC50 was found to be 32.8 ± 1.98 µM. Besides, in data set [8] (attenuated), the “S phase, fold vs control” value was 0.50 fold. Moreover, in [8] (augmentation), the “G2/M phase cell population, fold vs control” value is recorded as 5.33 fold and the “sub-G1 phase cell population, fold vs control” value is given as 13.13 fold. The “G0–G1 phase, fold vs control” value in data set [8] (reduced) is on record as 0.56 fold. Moreover, the total apoptosis in [9] amounted to 34.59%. For the same compound, the MIC in data set [6] (setting [10]) was 62.5 µg/mL (≈ 142 µM). This compound yielded an IC50 in data set [7] of 0.133 ± 0.0078 µM.

For orientation: IC50 means the midpoint of a concentration-inhibition curve. Low readings indicate greater potency in that assay, high ones weaker potency in that assay. A word on the MIC: it is the lowest concentration found to suppress growth. As a reminder, the melting point is the temperature, or range, at which the solid turns liquid.
